Reference: patent US20100247659A1, “PHENYLPHTHALIMIDE ANALOGS FOR TREATING DIABETIC MACULAR EDEMA” (Charlesson, LLC, priority 2007, published 2010)

Tests used:
OIR rats = test: Retinal NV in OIR rats, fluorescein angiography; type: in vivo, rat
Description: Induction of oxygen-induced retinopathy (OIR): Induction of OIR followed the procedure as described by Smith et al (Smith, et al. Invest. Opthalmol. Vis. Sci. 1994, 35: 101-111) with some modifications. Briefly, Newborn Brown Norway (BN) rats (Charles River Laboratories) at postnatal day 7 (P7) were exposed to hyperoxia (75% O2) for 5 days (P7-12) and then returned to normoxia (room air) to induce retinopathy.
Retinal angiography with high-molecular-weight fluorescein: High molecular weight fluorescein-dextran was used in retinal angiography as described by Smith et al (Smith, et al. Invest. Opthalmol. Vis. Sci. 1994, 35:101-111). Briefly, animals were anesthetized with ketamine (100 mg/kg of body weight) plus acepromazine (5 mg/kg of body weight) and then perfused through the left ventricle with 50 mg/ml of high molecular weight fluorescein-dextran in PBS. The eyes were marked for orientation, enucleated, and fixed in 4% paraformaldeyde for 3-24 h. Several incisions were made and the retinas were flat-mounted on a gelatin-coated slide. The vasculature was then examined under a fluorescent microscope. Both the total retinal area and the area of the avascular regions were measured using a computerized image-analysis system and averaged within each group.
Newborn BN rats were exposed to 75% oxygen from age P7 to P12. […]

[1] = Drying at elevated temperature; type: physicochemical; settings: 70° C., 89 h
Description: Synthesis of Compound 4 was successfully carried out via catalytic hydrogenation and via transfer hydrogenation. Catalytic hydrogenation required a longer reaction time (24 h) under 45-50 psi. This method requires specialized equipment. […] Scale-up of this reaction gave 99.2% pure material in 91% yield.
A 12 L, 3-neck round bottom flask, equipped appropriately and under nitrogen, was charged with a slurry of 10% palladium on carbon (24.5 g, 10% (w/w)) in ethanol (200 proof, 1 L). To this slurry was charged (2,6-diisopropylphenyl)-5-nitro-1H-isoindole-1,3-dione (245.0 g, 0.70 mol) followed by ethanol (200 proof, 2.92 L, 3.92 L total, 16 mL/g) and triethylamine (311.7 g, 3.08 mol, 4.40 eq). Formic acid (135.8 g, 2.95 mol, 4.22 eq) was added slowly over 25 min. The slurry was heated to reflux and the reaction progress was monitored by HPLC. At 3.5 h, the mixture was filtered through a Celite bed to remove the catalyst. The filter bed was rinsed with ethanol (200 proof, 4×175 mL). The filtrate was then clarified through Whatman filter paper to remove any particulates. Ethanol (200 proof, 2×150 mL) was used as a rinse. To the solution was added water (deionized, 3.92 L), over 45 min. The resulting slurry was stirred at ambient temperature overnight. The following day, the slurry was cooled to 0-10° C. for 2 h. […]

normal BN rats [2] = test: Ocular toxicity, histological analysis of the retina; type: in vivo, rat; settings: 2 μg/eye intravitreal, 4 weeks
Description: Histological analysis of the retina: To test the potential ocular toxicity of Compound 4, 8 week old normal BN rats received an intravitreal injection of Compound 4 (2.0 μg/eye, 5 μl/eye of 0.4 mg/ml in BN rat serum) or equal amount of BN rat serum, respectively. At various intervals after injection, the animals were sacrificed. The eyes then were removed, fixed in 4% formaldehyde, embedded in paraffin, and cut into 6-μm sections containing the whole retina. Paraffin-embedded sections were stained with hematoxylin-eosin (HE) and were examined.
Possible toxicities of CLT-033 were also examined using pathohistological examination 4 weeks after the drug administration. Retinal cross sections stained with H&E were examined under a light microscope.
Eight weeks old BN rats were received an intravitreal injection of Compound 4 (2.0 μg/eye, 5 μl/eye 0.4 mg/ml in BN rat serum) or equal amount of BN rat serum respectively (n=6). ERG was performed prior to study initiation and 1, 2, 3 and 4 weeks after the injection. Data shown no dramatic change in the a-wave and b-wave amplitudes in Compound 4-injected rats compared to vehicle-injected rats (FIG. 18A-18C). The animals were sacrificed 4 weeks after injection. The eye sections were observed under microscope with HE staining.

normal BN rats [3] = test: Ocular toxicity, ERG recording; type: in vivo, rat; settings: 2 μg/eye intravitreal, weeks 1-4
Description: Electroretinogram (ERG) recording: Full-field ERGs were recorded by Espion E^2 ERG system (Diagnosys LLC) as described previously (Rohrer, Journal of Neuroscience, 1999, 19: […]) by two protocols: (A) 10 ms flashes of increasing light intensities under scotopic and photopic conditions, and (B) 2 Hz flicker ERG under photopic conditions. BN rats received an intravitreal injection of Compound 4 (2.0 μg/eye, 5 μl/eye of 0.4 mg/ml in BN rat serum) or equal amount of BN rat serum, respectively. At various intervals after injection, the peak a-wave amplitude was measured from baseline to the initial negative-going voltage, whereas peak b-wave amplitude was measured from the trough of the a-wave to the peak of the positive b-wave. Flicker amplitudes were measured from the preceding trough to the peak of the flicker response. Data was expressed as mean±SD and compared between the compound-injected eyes and control eyes by the paired Student's t-test.
To test the potential ocular toxicities of Compound 4, normal rats at age of 8 weeks received an intravitreal injection of a high dose of Compound 4, 2 μg/eye (5 μl/eye of 0.4 mg/ml in BN rat serum) or an equal amount of BN rat serum as the vehicle control. Prior to study initiation, and after weeks 1, 2, 3, and 4 following the injection, visual function was evaluated by ERG recording. […]

| Structure (SMILES) | inhibition of retinal NV (OIR rats; 1.0 μg/eye intravitreal, evaluated P20) | effect on retinal NV, angiographs (FIG. 9) (OIR rats; 5 μl of 0.8 mM per eye, angiography) | stability on drying [1] | retinal morphology, H&E sections (normal BN rats [2]) | ERG a-wave and b-wave amplitudes (normal BN rats [3]) |
| --- | --- | --- | --- | --- | --- |
| O=C1CCC(N2C(=O)c3ccccc3C2=O)C(=O)N1 (centres unmarked) [thalidomide] | lacked significant inhibition of retinal NV | did not reduce the NV | – | – | – |
| CC(C)c1cccc(C(C)C)c1N1C(=O)c2ccc(N)cc2C1=O [Compound 4] | – | – | does not cause decomposition | No apparent morphological change or immunoresponse | no detectable change in the a-wave and b-wave amplitudes |
